Format in all cases: functional
For experiment [1], the species on record is Mus musculus. Description: Induction of neuronal differentiation of neuronal progenitor cells isolated from embryonic mouse cerebrum assessed as increase in MAP2 mRNA expression at 1 uM by real time PCR analysis. Background: Real-time PCR tracks product formation cycle by cycle.
The species named for experiment [2] is Mus musculus. Put plainly: Induction of neuronal differentiation of neuronal progenitor cells isolated from embryonic mouse cerebrum at 1 uM treated every second day for 4 days and measured after 48 hrs by DAPI/MAP2 fluorescent immunostaining based assay.
Experiment [3] in a line: Induction of neuronal differentiation of neuronal progenitor cells isolated from embryonic mouse cerebrum assessed as increase in MAP2 mRNA expression at 1 uM by real time PCR analysis relative to control.

Active and inactive are the calls of the source. The calls are words filed in the database; no cut-off is given here.

From ChEMBL document CHEMBL4619710, “Study on structure-activity relationship of vitamin K derivatives: Conversion of the naphthoquinone part into another aromatic ring and evaluation of their neuronal differentiation-inducing activity” (2020) come the findings set out here.

With `CC(C)=CCC1=C(C)C(=O)c2ccccc2C1=O`, the outcome in the experiment listed under Mus musculus [1] and in the experiment filed under Mus musculus [2] was Active. On to `CC(C)=CCC/C(C)=C/CC1=C(C)C(=O)C(C)=C(C)C1=O`, for which the result in the experiment filed under Mus musculus [1] and in the experiment listed under Mus musculus [2] was Active. Moreover, in experiment [3], the “fold change (FC)” value came out at 2. For `CC(C)=CCC/C(C)=C/CC/C(C)=C/CC1=C(C)C(=O)C(C)=C(C)C1=O`, the outcome in the experiment filed under Mus musculus [1] and in the experiment filed under Mus musculus [2] was Active. For the same compound, in experiment [3], the “fold change (FC)” value was 2.

As for `COC1=C(OC)C(=O)C(C/C=C(\C)CCC=C(C)C)=C(C)C1=O`, in the experiment filed under Mus musculus [2], the outcome was inactive. On to `CC(C)=CCC/C(C)=C/CC/C(C)=C/CC1=C(C)C(=O)c2ccccc2C1=O`, for which the result in the experiment filed under Mus musculus [1] and in the experiment listed under Mus musculus [2] was Active. `COC1=C(OC)C(=O)C(C/C=C(\C)CC/C=C(\C)CC/C=C(\C)CCC=C(C)C)=C(C)C1=O`: the result in the experiment filed under Mus musculus [1] and in the experiment listed under Mus musculus [2] was Active.

`CC(C)=CCC/C(C)=C/Cc1ccccc1C`: the outcome in the experiment listed under Mus musculus [1] and in the experiment listed under Mus musculus [2] was inactive. Consider `CC(C)=CCC/C(C)=C/CC1=C(C)C(=O)c2ccccc2C1=O`, for which the outcome in the experiment listed under Mus musculus [1] and in the experiment filed under Mus musculus [2] was Active.

Consider `COC1=C(OC)C(=O)C(C/C=C(\C)CC/C=C(\C)CCC=C(C)C)=C(C)C1=O`, for which the result in the experiment filed under Mus musculus [2] was inactive. Consider `CC(C)=CCC/C(C)=C/CC/C(C)=C/Cc1cccc(C)c1`, for which the result in the experiment listed under Mus musculus [1] and in the experiment listed under Mus musculus [2] was inactive.

`CC(C)=CCC/C(C)=C/CC/C(C)=C/Cc1ccccc1C`: the outcome in the experiment listed under Mus musculus [1] and in the experiment listed under Mus musculus [2] was inactive.

`CC1=CC(=O)c2ccccc2C1=O`: the outcome in the experiment listed under Mus musculus [2] was Active. On to `CC(C)=CCC/C(C)=C/Cc1cccc(C)c1`, for which the outcome in the experiment listed under Mus musculus [1] and in the experiment listed under Mus musculus [2] was inactive.
